Reference: patent publication EP3035931B1, “COMPOSITION FOR REDUCING NERVOUS SYSTEM INJURY AND METHOD OF MAKING AND USE THEREOF” (Morehouse School of Medicine, priority 2013, dated 2015)
Several values for one entry are separate records, joined by “and”; a condition that tells them apart may be missing. Equal entries are not always repeated. Structures can show the parent of a compound that is named as a salt. Where two headings read alike, the source gives them in different places.

How the values were obtained:
[1] = target: T1, ASIC1a channel (Mus musculus, UniProt Q6NXK8); assay: Table 1, inhibition in neurons; assay type: cell-based
T1 construct: endogenous in cells
T1 sequence (Q6NXK8 1-526): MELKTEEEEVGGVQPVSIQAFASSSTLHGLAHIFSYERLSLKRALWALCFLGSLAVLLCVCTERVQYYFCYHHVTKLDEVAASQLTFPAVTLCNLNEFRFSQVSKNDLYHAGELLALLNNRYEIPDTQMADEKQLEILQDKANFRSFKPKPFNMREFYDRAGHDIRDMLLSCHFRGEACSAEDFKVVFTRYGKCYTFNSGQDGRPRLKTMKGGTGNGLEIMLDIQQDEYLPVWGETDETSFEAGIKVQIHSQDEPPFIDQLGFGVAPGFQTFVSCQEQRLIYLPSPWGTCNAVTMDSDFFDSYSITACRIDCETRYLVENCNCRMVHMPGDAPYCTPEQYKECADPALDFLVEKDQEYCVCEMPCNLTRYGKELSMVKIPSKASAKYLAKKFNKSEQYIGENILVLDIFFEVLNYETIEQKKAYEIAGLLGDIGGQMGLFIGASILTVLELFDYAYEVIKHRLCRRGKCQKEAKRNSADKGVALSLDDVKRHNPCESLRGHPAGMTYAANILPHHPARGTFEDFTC
Method: ASIC currents were recorded with whole-cell patch-clamp and fast-perfusion techniques. […] For low pH solutions, various amounts of HCl were added. For solutions with pH<6.0, MES instead of HEPES was used for more reliable pH buffering. Patch electrodes contained (in mM) 140 CsF, 2.0 MgCl2, 1.0 CaC2, 10 HEPES, 11 EGTA, 4 MgATP (pH 7.3), 300 mOsm. […] A multibarrel perfusion system (SF-77B, Warner Instrument Co.) was employed for rapid exchange of solutions.

[2] = Mouse 60 min MCAO, intracerebroventricular injection one hour after MCAO, infarct volume; conditions: mice, evaluated one day after ischemia induction, FIG. 18
[3] = target: T2, ASIC2a (Homo sapiens, UniProt Q16515); assay: Blockade of ASIC 2a current expressed in CHO cells; assay type: cell-based
T2 construct: expressed in transfected cells; host or cells: CHO
T2 sequence (Q16515 1-512): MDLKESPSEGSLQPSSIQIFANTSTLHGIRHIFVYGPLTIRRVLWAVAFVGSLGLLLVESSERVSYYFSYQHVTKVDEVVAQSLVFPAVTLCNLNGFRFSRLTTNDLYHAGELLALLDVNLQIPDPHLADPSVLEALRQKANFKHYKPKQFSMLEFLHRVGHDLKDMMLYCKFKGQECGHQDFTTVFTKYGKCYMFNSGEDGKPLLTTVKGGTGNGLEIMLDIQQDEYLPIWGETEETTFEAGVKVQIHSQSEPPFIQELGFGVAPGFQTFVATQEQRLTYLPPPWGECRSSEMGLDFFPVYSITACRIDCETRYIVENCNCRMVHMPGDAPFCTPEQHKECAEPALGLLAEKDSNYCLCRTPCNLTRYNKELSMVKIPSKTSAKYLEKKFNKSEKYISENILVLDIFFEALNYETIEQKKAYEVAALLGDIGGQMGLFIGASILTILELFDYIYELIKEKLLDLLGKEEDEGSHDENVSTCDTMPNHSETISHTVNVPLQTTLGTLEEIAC

[4] = tested on: Knockout 1a; assay: Table 1, inhibition in Knockout 1a; assay type: cell-based
[5] = tested on: Knockout 2a; assay: Table 1, inhibition in Knockout 2a; assay type: cell-based
[6] = target: T3, ASIC1a (Homo sapiens, UniProt P78348); assay: Blockade of ASIC 1a current expressed in CHO cells; assay type: cell-based; parameters: expressed in transfected cells; host or cells: CHO; conditions: for block of ASIC1a current: CHO cells, FIG. 16
T3 sequence (P78348 1-528): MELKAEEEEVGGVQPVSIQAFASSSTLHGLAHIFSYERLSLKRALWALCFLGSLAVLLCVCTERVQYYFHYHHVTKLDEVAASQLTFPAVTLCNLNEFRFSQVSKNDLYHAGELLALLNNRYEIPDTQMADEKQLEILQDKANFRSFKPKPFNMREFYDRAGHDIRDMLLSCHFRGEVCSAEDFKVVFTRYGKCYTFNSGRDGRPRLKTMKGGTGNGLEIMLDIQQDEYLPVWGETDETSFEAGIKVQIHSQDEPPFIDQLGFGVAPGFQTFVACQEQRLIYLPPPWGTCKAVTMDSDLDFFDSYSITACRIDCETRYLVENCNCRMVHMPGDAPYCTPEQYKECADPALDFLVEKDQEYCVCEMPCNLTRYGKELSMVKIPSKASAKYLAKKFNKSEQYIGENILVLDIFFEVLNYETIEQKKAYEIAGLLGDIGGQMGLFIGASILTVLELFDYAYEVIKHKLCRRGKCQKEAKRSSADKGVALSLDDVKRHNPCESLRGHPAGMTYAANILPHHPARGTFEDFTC

[7] = tested on: cultured cortical neurons; assay: LDH release after combined 1 hr OGD/acidosis in cortical neurons; assay type: cell-based, mouse; conditions: trolox 500 µM, L-NAME 300 µM; n=8-11
Method: (§1) Background absorbance at 620 was subtracted.
Neurons were washed three times and incubated with glucose-free ECF at pH 7.4 or 6.0 in an anaerobic chamber (Model 1025, Forma Scientific) with an atmosphere of 85% N2, 10% H2, and 5% CO2 at 35° C. Oxygen-glucose deprivation (OGD) was terminated after 1 hr by replacing the glucose-free ECF with Neurobasal medium and incubating the cultures in a normal cell culture incubator.
As the magnitude of ASIC currents may be potentiated by cellular and neurochemical components of brain ischemia-cell swelling, arachidonic acid, and lactate and, more importantly, the desensitization of ASIC currents may be reduced dramatically by modeled ischemia (see FIGS. 5A and 5C), activation of ASICs in ischemic conditions is expected to produce greater neuronal injury. To test this hypothesis, neurons were subjected to 1 hr acid treatment under oxygen and glucose deprivation (OGD). MK801, CNQX, and nimodipine were added to all solutions to inhibit voltage-gated Ca^2+ channels and glutamate receptor-mediated cell injury associated with OGD. One hour incubation with pH 7.4 ECF under OGD conditions induced only 27.1% ± 3.5% of maximal LDH release at 24 hr (n=5, FIG. 9D).

[8] = tested on: ASIC1^-/- neurons; assay type: cell-based, mouse; conditions: 1 hr treatment with 1 mM NMDA+10 µM glycine in Mg^2+-free pH 7.4 ECF; n=4
Method: Following anesthesia with halothane, cerebral cortices were dissected from E16 Swiss mice or P1 ASIC1+/+ and ASIC1-/- mice and incubated with 0.05% trypsin-EDTA for 10 min at 37° C. Tissues were then triturated with fire-polished glass pipettes and plated on poly-L-ornithine-coated 24-well plates or 25x25 mm glass coverslips at a density of 2.5x10^5 cells per well or 10^6 cells per coverslip. Neurons were cultured with MEM supplemented with 10% horse serum (for E16 cultures) or Neurobasal medium supplemented with B27 (for PI cultures) and used for electrophysiology and toxicity studies after 12 days. Glial growth was suppressed by addition of 5-fluoro-2-deoxyuridine and uridine, yielding cultured cells with 90% neurons as determined by NeuN and GFAP staining (data not shown).
as §1
. […] . In contrast to acid incubation, 1 hr treatment of ASIC1^-/- neurons with 1 mM NMDA+10 µM glycine (in Mg^2+-free [pH 7.4] ECF) induced 84.8% ± 1.4% of maximal LDH release at 24 hr (n=4, FIG. 9C), indicating normal response to other cell injury processes.

[9] = target: T3, ASIC1a; assay: Inhibition of the ASIC1a channel (IC50 from Table 1, cell system not given); assay type: cell-based; conditions: quoted in the text from Table 1
[10] = 0.9% saline; cited from earlier work
[11] = Mouse 60 min MCAO, memantine i.p. with or without PcTX venom i.c.v., infarct volume; assay type: in vivo, mice
[12] = tested on: cortical neurons; assay: Fura-2 Ca^2+ imaging of acid-induced increase of [Ca^2+]i in cortical neurons; assay type: cell-based, mouse; conditions: preincubation with 1 µM; n=6
[13] = read-out: Inhibition of the ASIC1a channel, Neuron (-60 mV)
[14] = Neuron (-60 mV), read-out: Inhibition of the ASIC1a channel, Neuron (-60 mV)

Q: For `CN(C)c1nc(N)c(C(=O)NC(=N)N)nc1Cl` [5-(N, N-Dimenthyl)amiloride hydrochloride], which IC50 [1, 13] is on record?
A: Its IC50 is 14.8 ± 7.1 µM.

Q: For `CC(C)CN(C)c1nc(N)c(C(=O)N=C(N)N)nc1Cl` [5-(N-Methyl-N-isobutyl)-amiloride], which IC50 [1, 13] is on record?
A: Its IC50 is 24.3 µM.

Q: Which results are given for `CC(C)COCC(CN(Cc1ccccc1)c1ccccc1)N1CCCC1` (stereo not drawn) [Bepridil, bepridil]?
A: IC50 [1, 14]: 82.9 ± 5.2 µM; infarct volume [2]: effectively reduce infarct volume

Q: Which IC50 ([3]; CHO 2a, read-out: Inhibition, CHO 2a) does the source give for `CCN(c1nc(N)c(C(=O)NC(=N)N)nc1Cl)C(C)C` [EIPA, 5-(N-ethyl-N-isopropyl) amiloride] here?
A: Its IC50 is 31 µM.

Q: What about the “block of ASIC2a current” value ([3]; CHO cells, FIG. 17) of the same molecule?
A: Its value is “dose-dependent”.

Q: What about the IC50 ([1]; Neuron (-20 mV), read-out: Inhibition of the ASIC1a channel, Neuron (-20 mV)) of the same molecule?
A: Its IC50 is 32.2 ± 6.3 µM.

Q: What about the IC50 [1, 14] of the same molecule?
A: The IC50 was 43.3 ± 1.43 µM.

Q: And the IC50 [4]?
A: The IC50 was 35.9 ± 2.1 µM.

Q: What about the IC50 [5] of the same molecule?
A: Its IC50 is 20.1 ± 2.2 µM.

Q: What about the IC50 ([6]; CHO 1a, read-out: Inhibition of the ASIC1a channel, CHO 1a) of the same molecule?
A: The IC50 was 111 ± 30 µM.

Q: What about the “block of ASIC1a current” value [6] of the same molecule?
A: Its value is “dose-dependent”.

Q: For `COC(=O)[C@@H](N)CCCNC(=N)N[N+](=O)[O-]` [L-NAME], which “LDH release induced by combined 1 hr OGD/acidosis” value [7] is on record?
A: The value was “not inhibited”.

Q: For `CN[C@H](CC(=O)O)C(=O)O` [NMDA], which “maximal LDH release at 24 hr” value [8] is on record?
A: The value was 84.8% ± 1.4%.

Q: Which IC50 [9] does the source give for `NC(=NCc1ccccc1)NC(=O)c1nc(Cl)c(N)nc1N` [benzamil] here?
A: The IC50 was 4.9 µM and 4 to 8 µM.

Q: And the reported solubility [10]?
A: Its reported solubility is 0.4 mg/ml and 1.7 mM.

Q: What does the source list for `CC12CC3CC(C)(C1)CC(N)(C3)C2` [memantine]?
A: infarct volume ([11]; ASIC1^-/- mice, memantine i.p., n=5): 27.7 ± 1.6 mm^3; infarct volume ([11]; ASIC^+/+ mice, 10 mg/kg memantine i.p., saline 101.4 ± 9.4, n=5): 61.6 ± 12.7 mm^3

Q: Which “block of ASIC1a current” value [6] does the source give for `NC(=Nc1ccccc1)NC(=O)c1nc(Cl)c(N)nc1N` [phenamil] here?
A: Its value is “dose-dependent”.

Q: For `C/C=C(/C)C(=O)O[C@H]1C(C)=C2[C@H]([C@@H]1OC(=O)CCCCCCC)[C@@](C)(OC(C)=O)C[C@H](OC(=O)CCC)[C@@]1(O)[C@H]2OC(=O)[C@@]1(C)O` [thapsigargin], which “sustained component of Ca^2+ increase” value [12] is on record?
A: The value was “partially inhibited”.

Q: For `Cc1c(C)c2c(c(C)c1O)CCC(C)(C(=O)O)O2` (stereo not drawn) [trolox], which “LDH release induced by combined 1 hr OGD/acidosis” value [7] is on record?
A: Its value is “not inhibited”.
